Experimental data as given in patent publication US20100184134A1, “DUAL CHARGING SYSTEM FOR SELECTIVELY INTRODUCING NON-NATIVE AMINO ACIDS INTO PROTEINS USING AN IN VITRO SYNTHESIS METHOD” (priority 2009, published 2010).

Experiments:
GluRS = GluRS (Escherichia coli, UniProt P04805); conditions: read-out: IC50 for inhibition of the rate of cell-free synthesis of turboGFP; cell-free reaction at 30° C., fluorescence monitored for 5 h, maximal rate of fluorescence change
Excerpt: (§1) Cell-free extracts or lysates were generated to maximize ribosome yield using rapid growth of high cell density fermentations of E. coli strain KGK10 (Knapp, Goerke et al. (2007) Biotechnol Bioeng, 97, 901-8), essentially as described by Liu et al.(Liu, Zawada et al. (2005) Biotechnol Prog, 21, 460-5) DL-dithiothreitol was not added to the cell lysate following homogenization. A modified “run-off procedure” was used to prepare the cell-free extract. Fermentation volume to generate sufficient cell-free extract was typically 2.5× the desired cell-free reaction volume. To inactivate the reducing activity of the cell extract, iodoacetamide (IAM) at various concentrations was added as previously described (Yang, Kanter et al. (2004) Biotechnol Prog, 20, 1689-96). Gene expression was under the control of the T7 promoter. In order to facilitate translation initiation, genes were synthesized (DNA 2.0, Menlo Park, Calif.) with synonymous codons at the 5′ end of the gene with ATG start codon (N-terminal methionine residue) optimized for mRNA instability as measured by mRNA ΔGfold in the −6 to +37 positions (Kudla, Murray et al. (2009) Science, 324, 255-258) and rare codons were replaced. […]

PheRS = target: T1, PheRS (Escherichia coli, UniProt P08312); experiment: Inhibition of the rate of cell-free synthesis of turboGFP by Phe-SA; assay type: biochemical, E. coli
T1 construct: endogenous in cells; host or cells: cell-free extract (lysate) of E. coli strain KGK10
Excerpt: as §1

[1] = target: T2, endogenous activity of PheRS (Escherichia coli, UniProt P08312); experiment: Cell-free synthesis of turboGFP Y50TAG with added uncharged tRNAs in the presence of Phe-SA; assay type: biochemical, E. coli; conditions: 12 nM Phe-SA; uncharged tRNACUA^Phe and tRNAGAA^Phe added
T2 construct: endogenous in cells; host or cells: cell-free extract (lysate) of E. coli strain KGK10
Method: A control reaction containing turboGFP Y50TAG plasmid only yields no fluorescence, consistent with the ca. 6 kD truncated product (cf FIG. 22). The incorporation of para-acetyl phenylalanine at position 50 using the UAG-specific E. coli phenylalanine tRNACUA^Phe and tRNAGAA^Phe was measured in the presence 12 nM Phe-SA inhibitor, to inhibit the endogenous activity of PheRS (cf. FIG. 19c). […] In contrast, addition of various concentrations of both charged pAF-tRNACUA^Phe and Phe-tRNAGAA^Phe results in 13-20% of the wild-type fluorescence after 5 h, consistent with significant protein synthesis with incorporation of pAF at position 50.

T1 sequence (P07395 whole entry): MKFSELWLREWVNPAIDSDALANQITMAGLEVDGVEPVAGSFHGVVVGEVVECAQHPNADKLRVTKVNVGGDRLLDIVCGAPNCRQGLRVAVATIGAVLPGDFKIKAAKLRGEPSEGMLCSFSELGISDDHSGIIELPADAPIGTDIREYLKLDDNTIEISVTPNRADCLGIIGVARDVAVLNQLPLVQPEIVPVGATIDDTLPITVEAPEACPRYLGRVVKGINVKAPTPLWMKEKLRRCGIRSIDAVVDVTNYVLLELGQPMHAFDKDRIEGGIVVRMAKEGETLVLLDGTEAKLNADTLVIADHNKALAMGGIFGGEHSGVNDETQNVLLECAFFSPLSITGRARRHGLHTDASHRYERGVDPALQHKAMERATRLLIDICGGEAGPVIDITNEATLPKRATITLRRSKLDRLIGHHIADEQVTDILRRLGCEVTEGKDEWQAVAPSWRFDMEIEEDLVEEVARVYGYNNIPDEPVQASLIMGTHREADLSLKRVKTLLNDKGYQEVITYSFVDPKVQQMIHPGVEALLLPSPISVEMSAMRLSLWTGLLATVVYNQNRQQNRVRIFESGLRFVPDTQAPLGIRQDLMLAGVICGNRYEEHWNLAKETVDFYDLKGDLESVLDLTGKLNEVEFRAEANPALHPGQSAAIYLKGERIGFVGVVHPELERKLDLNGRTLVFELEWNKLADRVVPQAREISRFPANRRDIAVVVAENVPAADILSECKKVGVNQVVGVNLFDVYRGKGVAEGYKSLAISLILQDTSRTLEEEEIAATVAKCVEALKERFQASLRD
T1 sequence (P08312 whole entry): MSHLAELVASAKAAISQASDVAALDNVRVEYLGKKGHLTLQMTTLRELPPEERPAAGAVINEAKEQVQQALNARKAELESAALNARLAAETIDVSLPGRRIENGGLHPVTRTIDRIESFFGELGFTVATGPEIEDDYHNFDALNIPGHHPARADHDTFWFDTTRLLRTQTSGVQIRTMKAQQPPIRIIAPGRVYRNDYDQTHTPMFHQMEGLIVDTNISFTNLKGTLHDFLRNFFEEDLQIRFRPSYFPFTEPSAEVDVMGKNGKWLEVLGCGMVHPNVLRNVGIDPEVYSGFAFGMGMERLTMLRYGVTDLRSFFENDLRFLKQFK
T2 sequence (P08312 whole entry): as above
T2 sequence (P07395 whole entry, further chain): as the sequence (P07395 whole entry) above
Chain of GluRS (P04805 whole entry): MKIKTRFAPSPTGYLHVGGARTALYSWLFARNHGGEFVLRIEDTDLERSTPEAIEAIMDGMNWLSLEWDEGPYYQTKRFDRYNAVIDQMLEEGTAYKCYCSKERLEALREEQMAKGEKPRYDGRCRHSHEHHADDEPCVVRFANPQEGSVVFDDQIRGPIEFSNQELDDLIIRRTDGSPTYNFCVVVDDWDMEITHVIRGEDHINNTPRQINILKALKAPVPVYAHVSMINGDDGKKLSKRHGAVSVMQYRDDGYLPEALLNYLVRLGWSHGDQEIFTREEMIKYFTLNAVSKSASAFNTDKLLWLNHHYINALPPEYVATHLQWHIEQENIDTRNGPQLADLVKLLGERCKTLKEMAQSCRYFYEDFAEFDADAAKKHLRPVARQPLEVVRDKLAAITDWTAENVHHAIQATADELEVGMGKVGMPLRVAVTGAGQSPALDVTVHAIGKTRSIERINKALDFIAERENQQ

Row | Compound | IC50 (GluRS) [nM] | IC50 (PheRS) [nM] | turboGFP fluorescence activity (percent relative activity) (PheRS; 1 nM Phe-SA inhibitor) [%] | inhibition of PheRS (no protein synthesized with uncharged tRNAs) [1]
1 | Nc1ncnc2c1ncn2[C@@H]1O[C@H](COS(=O)(=O)NC(=O)[C@@H](N)CCC(=O)O)[C@@H](O)[C@H]1O [Glu-SA] | 54 | – | – | –
2 | Nc1ncnc2c1ncn2[C@@H]1O[C@H](COS(=O)(=O)NC(=O)[C@@H](N)Cc2ccccc2)[C@@H](O)[C@H]1O [Phe-SA, 5′-O-[N-(Phenylalanyl)sulfamoyl] adenosine] | – | 0.8 | ~50 | completely inhibited
